The results in this text go back to patent US20140113898A1, “BISARYLSULFONE AND DIALKYLARYLSULFONE COMPOUNDS AS CALCIUM CHANNEL BLOCKERS” (Zalicus Pharmaceuticals Ltd., priority 2010, published 2014).

Each structure is given as a SMILES string. Like-named read-outs stand apart in the source and are kept apart here.

For one assay, the target named is T1, CaV2.2 (Homo sapiens, UniProt Q00975).
T1 construct: expressed in transfected cells; host or cells: unnamed doxycycline-inducible cell line
As to the kind of experiment: High-throughput CaV2.2/Kir2.3 FLIPR fluorescent assay. To be noted: Fluo-4 FLIPR, closed or inactivated state not stated, read-out: FLIPR data CaV2.2. The assay is classed as cell-based. In outline: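 Doxycycline-induced cells moved to 29 °C on assay day and were loaded with 4.4 μM Fluo-4. They were held in 2 mM KCl (closed state) or 12.5 mM KCl (inactivated state) buffer, pH 7.4, then depolarized with 130 mM KCl. Fluorescence was read 3 min on FLIPR, and IC50 was obtained from logistic fits.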

The target in a further assay is T2, CaV3.2 (Homo sapiens, UniProt O95180).
T2 construct: expressed in transfected cells; host or cells: unnamed doxycycline-inducible cell line
T2 sequence (O95180 whole entry): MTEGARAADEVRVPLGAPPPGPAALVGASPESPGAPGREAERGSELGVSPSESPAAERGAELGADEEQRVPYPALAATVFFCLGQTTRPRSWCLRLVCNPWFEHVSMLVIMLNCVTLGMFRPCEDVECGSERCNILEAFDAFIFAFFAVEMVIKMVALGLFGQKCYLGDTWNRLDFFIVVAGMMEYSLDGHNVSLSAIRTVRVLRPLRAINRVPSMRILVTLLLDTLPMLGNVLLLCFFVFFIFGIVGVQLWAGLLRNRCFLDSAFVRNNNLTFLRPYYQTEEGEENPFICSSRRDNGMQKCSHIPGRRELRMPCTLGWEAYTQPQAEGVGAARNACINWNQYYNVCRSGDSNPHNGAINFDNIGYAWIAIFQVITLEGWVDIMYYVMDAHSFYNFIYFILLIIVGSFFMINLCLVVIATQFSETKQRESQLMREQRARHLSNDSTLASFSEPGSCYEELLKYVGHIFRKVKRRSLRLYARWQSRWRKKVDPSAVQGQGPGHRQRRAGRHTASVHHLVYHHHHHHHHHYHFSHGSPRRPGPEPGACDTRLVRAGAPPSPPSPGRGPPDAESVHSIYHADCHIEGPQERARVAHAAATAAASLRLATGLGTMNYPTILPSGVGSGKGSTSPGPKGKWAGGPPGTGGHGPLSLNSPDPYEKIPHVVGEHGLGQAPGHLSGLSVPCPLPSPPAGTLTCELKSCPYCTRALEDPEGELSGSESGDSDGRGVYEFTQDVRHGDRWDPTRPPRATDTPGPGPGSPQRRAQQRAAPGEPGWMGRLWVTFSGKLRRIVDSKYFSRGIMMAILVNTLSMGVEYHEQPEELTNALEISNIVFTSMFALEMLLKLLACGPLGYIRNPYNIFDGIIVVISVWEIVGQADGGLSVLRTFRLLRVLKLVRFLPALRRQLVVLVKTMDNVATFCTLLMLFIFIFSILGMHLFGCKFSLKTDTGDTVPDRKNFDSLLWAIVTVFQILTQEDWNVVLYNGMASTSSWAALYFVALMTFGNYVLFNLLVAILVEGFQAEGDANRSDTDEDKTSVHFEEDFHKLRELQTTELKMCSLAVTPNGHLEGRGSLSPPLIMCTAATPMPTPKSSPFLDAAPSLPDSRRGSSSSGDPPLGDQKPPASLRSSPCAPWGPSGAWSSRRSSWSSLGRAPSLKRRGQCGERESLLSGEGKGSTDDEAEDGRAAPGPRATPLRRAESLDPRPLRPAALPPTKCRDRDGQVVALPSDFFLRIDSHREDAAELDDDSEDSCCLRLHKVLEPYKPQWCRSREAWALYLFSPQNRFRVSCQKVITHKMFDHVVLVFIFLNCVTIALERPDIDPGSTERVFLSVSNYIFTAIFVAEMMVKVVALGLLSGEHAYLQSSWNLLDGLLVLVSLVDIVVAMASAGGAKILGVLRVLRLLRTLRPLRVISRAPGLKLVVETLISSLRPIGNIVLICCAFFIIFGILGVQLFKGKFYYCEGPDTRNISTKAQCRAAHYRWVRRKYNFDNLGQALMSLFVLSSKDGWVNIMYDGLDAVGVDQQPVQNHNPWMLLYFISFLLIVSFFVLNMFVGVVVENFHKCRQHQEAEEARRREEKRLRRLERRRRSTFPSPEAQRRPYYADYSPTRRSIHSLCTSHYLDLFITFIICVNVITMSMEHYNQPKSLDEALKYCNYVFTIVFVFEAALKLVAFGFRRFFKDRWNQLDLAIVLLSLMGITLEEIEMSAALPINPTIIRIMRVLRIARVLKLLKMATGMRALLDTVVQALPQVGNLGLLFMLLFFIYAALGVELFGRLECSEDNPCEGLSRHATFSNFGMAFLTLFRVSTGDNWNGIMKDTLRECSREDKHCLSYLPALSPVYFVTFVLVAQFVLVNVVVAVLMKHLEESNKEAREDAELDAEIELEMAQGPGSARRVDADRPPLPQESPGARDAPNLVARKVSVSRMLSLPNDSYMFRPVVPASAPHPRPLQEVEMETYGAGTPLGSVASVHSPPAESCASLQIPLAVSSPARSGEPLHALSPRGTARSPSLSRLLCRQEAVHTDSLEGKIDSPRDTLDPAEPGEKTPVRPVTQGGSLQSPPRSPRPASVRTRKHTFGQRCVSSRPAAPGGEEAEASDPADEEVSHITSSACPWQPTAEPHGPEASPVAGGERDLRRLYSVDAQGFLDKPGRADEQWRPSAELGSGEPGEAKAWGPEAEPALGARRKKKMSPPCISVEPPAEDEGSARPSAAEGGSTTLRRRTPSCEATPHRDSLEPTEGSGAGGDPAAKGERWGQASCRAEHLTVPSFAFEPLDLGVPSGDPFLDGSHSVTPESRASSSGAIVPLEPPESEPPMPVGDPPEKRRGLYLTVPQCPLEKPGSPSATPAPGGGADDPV
The assay is described as follows: High-throughput CaV3.2/Kir2.3 T-type FLIPR fluorescent assay. The assay is classed as cell-based. The following applies: Fluo-4 FLIPR, closed or inactivated state not stated. As to the method:
Cells were plated in 384-well, clear-bottom, black-walled, poly-D-lysine coated plates (Becton Dickinson, Franklin Lake, N.J.) 2 days prior to use in the FLIPR assay. 100 µL of cells (1.2×10^6 cell/mL) containing doxycyline (Sigma-Aldrich, 1.5 μg/mL; to induce channel expression) were added to each well using a Multidrop (Thermo Scientific, Waltham, Mass.) and were maintained in 5% CO2 incubator at 37° C. On the morning of the assay, cells were transferred to a 5% CO2 incubator at 29° C.
Cells were washed with a wash buffer containing (in mM): 118 NaCl, 18.4 HEPES, 11.7 D-glucose, 2 CaCl2, 0.5 MgSO4, 4.7 KCl, and 1.2 KH2PO4, with the pH adjusted to 7.2 with
NaOH. 4.4 μM of the fluorescent indicator dye Fluo-4 (Invitrogen) prepared in pluronic acid (Sigma-Aldrich) was loaded into the wells and incubated for 45 minutes at 29° C. in 5% CO2. Cells were then rinsed with either a 2 mM KCl closed-state buffer (in mM: 138.5 NaCl, 10 HEPES, 10 D-glucose, 1 CaCl2, and 2 KCl, with the pH adjusted to 7.4 with NaOH) when performing the closed-state assay or 7.6 mM KCl inactivated-state buffer (in mM: 130.9 NaCl, 10 HEPES, 10 D-glucose, 1 CaCl2, and 7.6 mM KCl, with the pH adjusted to 7.4 with NaOH) when performing the inactivated-state assay. Concentration-dependent response curves were generated from 5 mM stock solutions prepared in DMSO (Sigma-Aldrich), diluted in either the 2 mM KCl buffer or 7.6 mM KCl buffer, and incubated for 20 minutes at 29° C. in 5% CO2. Calcium entry was evoked with an addition of either 12 mM KCl stimulation buffer (in mM: 128.5 NaCl, 10 HEPES, 10 D-glucose, 1 CaCl2, and 12 KCl, with the pH adjusted to 7.4 with NaOH) or 14.5 mM KCl stimulation buffer (in mM: 126 NaCl, 10 HEPES, 10 D-glucose, 1 CaCl2, and 14.5 KCl, with the pH adjusted to 7.4 with NaOH) for the closed-state or inactivated-state assay respectively. A change in the Fluo-4 fluorescence signal was assessed using FLIPR^TETRA™ instrument (Molecular Devices, Sunnyvale, Calif.) for 3 minutes following the elevation of extracellular KCl using an illumination wavelength of 470-495 nm with emissions recorded at 515-575 nm.
Concentration-dependent response curves were obtained by comparing the fluorescence signal in the presence of compound and fitted with a logistic function (1) to obtain the concentration that inhibited 50% (IC50) of the RLU signal using OriginPro v.7.5 software (OriginLab, Northampton, Mass.).
To assess the quality of the FLIPR assays the Z-factor (2) was used to quantify the suitability of the assay conditions using the following equation: […]
Data are expressed as mean and standard deviation (SD).

On to `CC(C)Oc1cccnc1C(C)(C)NC(=O)C(C)(C)S(=O)(=O)c1cccc(C(F)(F)F)c1` [Compound 147, N-(2-(3-isopropoxypyridin-2-yl)propan-2-yl)-2-methyl-2-((3-(trifluoromethyl)phenyl)sulfonyl)propanamide], for which the values for the IC50 at CaV2.2 (Table 5) and against CaV3.2 (Table 5) were 1390 nM and 3530 nM, respectively.
With `CC(C)(CNC(=O)c1ccc(C(F)(F)F)nc1)S(=O)(=O)c1cccc(C(F)(F)F)c1` [Compound 175, N-(2-methyl-2-((3-(trifluoromethyl)phenyl)sulfonyl)propyl)-6-(trifluoromethyl)nicotinamide], the values for the IC50 on CaV2.2 (Table 5) and at CaV3.2 (Table 5) were 3190 nM and 5320 nM, respectively.
For the compound `COc1ccc(C(=O)NCC(C)(C)S(=O)(=O)c2cccc(C(F)(F)F)c2)cc1Cl` [Compound 160, 3-chloro-4-methoxy-N-(2-methyl-2-((3-(trifluoromethyl)phenyl)sulfonyl)propyl)benzamide], the IC50 at CaV2.2 (Table 5) worked out at 1020 nM; at CaV3.2 (Table 5), 3990 nM.
Take `O=C(NCc1ccc(S(=O)(=O)c2cccc(C(F)(F)F)c2)cc1)[C@H]1CCCCN1` [Compound 80, (R)-N-(4-((3-(trifluoromethyl)phenyl)sulfonyl)benzyl)piperidine-2-carboxamide]: the figures for the IC50 on CaV2.2 (Table 4) and on CaV3.2 (Table 4) were 770 nM and 8700 nM, respectively.
As to `O=C(CCC(F)(F)F)NCc1cccc(S(=O)(=O)c2cccc(C(F)(F)F)c2)c1` [Compound 54, 4,4,4-trifluoro-N-(3-((3-(trifluoromethyl)phenyl)sulfonyl)benzyl)butanamide], the IC50 at CaV2.2 (Table 4) was found to be 400 nM; at CaV3.2 (Table 4), 6710 nM.
On to `CC(C)(CNC(=O)c1ccnc(N2CCCC2)c1)S(=O)(=O)c1cccc(C(F)(F)F)c1` [Compound 161, N-(2-methyl-2-((3-(trifluoromethyl)phenyl)sulfonyl)propyl)-2-(pyrrolidin-1-yl)isonicotinamide], for which the IC50 on CaV2.2 (Table 5) is 1120 nM; on CaV3.2 (Table 5), 8220 nM.
The matching figures for `CC(C)(C(=O)NCc1cccnc1Oc1ccc(F)cc1)S(=O)(=O)c1cccc(C(F)(F)F)c1` [Compound 146, N-((2-(4-fluorophenoxy)pyridin-3-yl)methyl)-2-methyl-2-((3-(trifluoromethyl)phenyl)sulfonyl)propanamide]: 440 nM and 7210 nM.
As to `O=C(NCc1ccc(S(=O)(=O)c2cccc(C(F)(F)F)c2)cn1)c1ccnc(C(F)(F)F)n1` [Compound 98, 2-(trifluoromethyl)-N-((5-((3-(trifluoromethyl)phenyl)sulfonyl)pyridin-2-yl)methyl)pyrimidine-4-carboxamide], the IC50 came out at 1490 nM on CaV2.2 (Table 4) and 9160 nM on CaV3.2 (Table 4).
As to `O=C(CCC(F)(F)F)NCc1ccc(S(=O)(=O)c2cccc(C(F)(F)F)c2)cc1` [Compound 53, 4,4,4-trifluoro-N-(4-((3-(trifluoromethyl)phenyl)sulfonyl)benzyl)butanamide], the IC50 came out at 340 nM at CaV2.2 (Table 4) and 4100 nM at CaV3.2 (Table 4).
With `O=C(NCc1ccc(S(=O)(=O)c2cccc(C(F)(F)F)c2)cc1)[C@@H]1CCCCN1` [Compound 79, (S)-N-(4-((3-(trifluoromethyl)phenyl)sulfonyl)benzyl)piperidine-2-carboxamide], the IC50 was found to be 1450 nM at CaV2.2 (Table 4) and 8440 nM against CaV3.2 (Table 4).
In the case of `O=C(NCc1ccccc1S(=O)(=O)c1cccc(C(F)(F)F)c1)c1cn2cc(C(F)(F)F)ccc2n1` [Compound 51, 6-(trifluoromethyl)-N-(2-((3-(trifluoromethyl)phenyl)sulfonyl)benzyl)imidazo[1,2-a]pyridine-2-carboxamide], the results for the IC50 at CaV2.2 (Table 4) and on CaV3.2 (Table 4) were 1230 nM and 1050 nM, respectively.
On to `CC(C)(CNC(=O)c1cncc(C(F)(F)F)c1)S(=O)(=O)c1cccc(C(F)(F)F)c1` [Compound 176, N-(2-methyl-2-((3-(trifluoromethyl)phenyl)sulfonyl)propyl)-5-(trifluoromethyl)nicotinamide], for which the values for the IC50 at CaV2.2 (Table 5) and at CaV3.2 (Table 5) were 1310 nM and 5340 nM, respectively.
Consider `CC(C)(CCN1Cc2nc(C(F)(F)F)ccc2C1=O)S(=O)(=O)c1cccc(C(F)(F)F)c1` [Compound 188, 6-(3-methyl-3-((3-(trifluoromethyl)phenyl)sulfonyl)butyl)-2-(trifluoromethyl)-6,7-dihydro-5H-pyrolo[3,4-b]pyridine-5-one], for which the IC50 came to 420 nM at CaV2.2 (Table 5) and 5540 nM at CaV3.2 (Table 5).
With `O=C1c2ccc(C(F)(F)F)nc2CN1Cc1ccccc1S(=O)(=O)c1cccc(C(F)(F)F)c1` [Compound 58, 2-(trifluoromethyl)-6-(2-((3-(trifluoromethyl)phenyl)sulfonyl)benzyl)-6,7-dihydro-5H-pyrrolo[3,4-b]pyridin-5-one], the IC50 at CaV2.2 (Table 4) was 2680 nM; on CaV3.2 (Table 4), 1480 nM.
The matching figures for `NC1(CC(=O)NCc2ccc(S(=O)(=O)c3cccc(C(F)(F)F)c3)cc2)CCCCC1` [Compound 86, 2-(1-aminocyclohexyl)-N-(4-((3-(trifluoromethyl)phenyl)sulfonyl)benzyl)acetamide]: 310 nM and 5500 nM.
On to `NC1(C(=O)NCc2ccc(S(=O)(=O)c3cccc(C(F)(F)F)c3)cc2)CCC2(CC1)OCCO2` [Compound 83, 8-amino-N-(4-((3-(trifluoromethyl)phenyl)sulfonyl)benzyl)-1,4-dioxaspiro[4.5]decane-8-carboxamide], for which the IC50 was 1310 nM on CaV2.2 (Table 4) and 9220 nM against CaV3.2 (Table 4).
Take `CC(C)(CNC(=O)c1ccc(Cl)cc1)S(=O)(=O)c1cccc(C(F)(F)F)c1` [Compound 165, 4-chloro-N-(2-methyl-2-((3-(trifluoromethyl)phenyl)sulfonyl)propyl)benzamide]: the figures for the IC50 at CaV2.2 (Table 5) and against CaV3.2 (Table 5) were 1530 nM and 6500 nM, respectively.
The matching figures for `COc1cc(C)ccc1C(=O)NCC(C)(C)S(=O)(=O)c1cccc(C(F)(F)F)c1` [Compound 170, 2-methoxy-4-methyl-N-(2-methyl-2-((3-(trifluoromethyl)phenyl)sulfonyl)propyl)benzamide]: 1860 nM and 7210 nM.
In the case of `O=C(NCc1ccc(S(=O)(=O)c2cccc(C(F)(F)F)c2)cn1)c1cnc(C(F)(F)F)nc1` [Compound 97, 2-(trifluoromethyl)-N-((5-((3-(trifluoromethyl)phenyl)sulfonyl)pyridin-2-yl)methyl)pyrimidine-5-carboxamide], the values for the IC50 on CaV2.2 (Table 4) and at CaV3.2 (Table 4) were 1930 nM and 4170 nM, respectively.
